Assay results as given in patent US12077503B2, “Substituted cyclic amides and their use as herbicides” (FMC CORPORATION, priority 2015, dated 2024).

Assays:
Format in all cases: in vivo
[1] = system: barnyardgrass (Echinochloa crus-galli); assay: Test G Pre-Emergence Protocol; details: Echinochloa crus-galli, pre-emergence, 312 h, evaluated after 13 days; for pest or weed control at 15.625 g/ha: 15.625 g ai/ha, read-out: Barnyard grass damage rating (100=total damage to plant; 0=no damage to plant); for pest or weed control at 62.5 g/ha: 62.5 g ai/ha, 100=total damage to plant, 0=no damage to plant, read-out: plant damage rating, Barnyardgrass; for pest or weed control at 250 g/ha: 250 g ai/ha, read-out: Barnyardgrass damage rating (100=total damage to plant; 0=no damage to plant)
In short: (§1)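 Visual injury (0–100) at day 13 after a single pre-emergence spray. Rates: 15.625, 62.5, 250 g/ha in acetone–water 50:50 with 0.5% Tween 20. Growth conditions: 24/16° C, 14 h light, 65% humidity.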

corn (Zea mays) [2] = assay: Test G Pre-Emergence Protocol; details: Zea mays, pre-emergence, 312 h, evaluated after 13 days; for plant injury at 15.625 g/ha: 15.625 g ai/ha; for plant injury at 15.625 g/ha / plant injury at 250 g/ha: read-out: Corn damage rating (100=total damage to plant; 0=no damage to plant); for plant injury at 62.5 g/ha: 62.5 g ai/ha, 100=total damage to plant, 0=no damage to plant, read-out: plant damage rating, Corn; for plant injury at 250 g/ha: 250 g ai/ha
In short: as §1

[3] = system: giant foxtail (Setaria faberi); assay: Test G Pre-Emergence Protocol; details: Setaria faberi, pre-emergence, 312 h, evaluated after 13 days; for pest or weed control at 15.625 g/ha: 15.625 g ai/ha; for pest or weed control at 15.625 g/ha / pest or weed control at 250 g/ha: read-out: Foxtail, Giant damage rating (100=total damage to plant; 0=no damage to plant); for pest or weed control at 62.5 g/ha: 62.5 g ai/ha, 100=total damage to plant, 0=no damage to plant, read-out: plant damage rating, Foxtail, Giant; for pest or weed control at 250 g/ha: 250 g ai/ha
In short: as §1

[4] = system: ivy-leaved morning glory (Ipomoea hederacea); assay: Test G Pre-Emergence Protocol; details: Ipomoea, pre-emergence, 312 h, evaluated after 13 days; for pest or weed control at 15.625 g/ha: 15.625 g ai/ha, read-out: Morning-glory, Ivy-leaved damage rating (100=total damage to plant; 0=no damage to plant); for pest or weed control at 62.5 g/ha: 62.5 g ai/ha, 100=total damage to plant, 0=no damage to plant, read-out: plant damage rating, Morningglory, Ivy-leaved; for pest or weed control at 250 g/ha: 250 g ai/ha, read-out: Morningglory, Ivy-leaved damage rating (100=total damage to plant; 0=no damage to plant)
In short: as §1

[5] = system: redroot pigweed (Amaranthus retroflexus); assay: Test G Pre-Emergence Protocol; details: Amaranthus retroflexus, pre-emergence, 312 h, evaluated after 13 days; for pest or weed control at 15.625 g/ha: 15.625 g ai/ha; for pest or weed control at 15.625 g/ha / pest or weed control at 250 g/ha: read-out: Pigweed, Redroot damage rating (100=total damage to plant; 0=no damage to plant); for pest or weed control at 62.5 g/ha: 62.5 g ai/ha, 100=total damage to plant, 0=no damage to plant, read-out: plant damage rating, Pigweed, Redroot; for pest or weed control at 250 g/ha: 250 g ai/ha
In short: as §1

[6] = system: velvetleaf (Abutilon theophrasti); assay: Test G Pre-Emergence Protocol; details: Abutilon theophrasti, pre-emergence, 312 h, evaluated after 13 days; for pest or weed control at 15.625 g/ha: 15.625 g ai/ha; for pest or weed control at 15.625 g/ha / pest or weed control at 250 g/ha: read-out: Velvetleaf damage rating (100=total damage to plant; 0=no damage to plant); for pest or weed control at 62.5 g/ha: 62.5 g ai/ha, 100=total damage to plant, 0=no damage to plant, read-out: plant damage rating, Velvetleaf; for pest or weed control at 250 g/ha: 250 g ai/ha
In short: as §1

[7] = system: barnyardgrass (Echinochloa crus-galli); assay: Test G Post-Emergence Protocol; details: Echinochloa crus-galli, post-emergence, 312 h; for pest or weed control at 15.625 g/ha: 15.625 g ai/ha, evaluated after 13 days (100=total damage to plant; 0=no damage to plant), read-out: Barnyardgrass damage rating; for pest or weed control at 62.5 g/ha: 62.5 g ai/ha, read-out: Barnyardgrass damage rating (100=total damage to plant; 0=no damage to plant); for pest or weed control at 62.5 g/ha / pest or weed control at 250 g/ha: evaluated after 13 days; for pest or weed control at 250 g/ha: 250 g ai/ha, read-out: damage to plant, Barnyardgrass (100=total damage to plant; 0=no damage to plant)
In short: (§2)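 Scores run 0 (no damage) to 100 (total damage) and were taken 13 days after spraying. Plants had been raised in pots for 8 days under glasshouse control (24/16 °C, 14 h photoperiod, 65% humidity) and then treated at 15.625, 62.5 or 250 g/ha.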

corn (Zea mays) [8] = assay: Test G Post-Emergence Protocol; details: Zea mays, post-emergence, 312 h; for plant injury at 15.625 g/ha: 15.625 g ai/ha, evaluated after 13 days (100=total damage to plant; 0=no damage to plant), read-out: Corn damage rating; for plant injury at 62.5 g/ha: 62.5 g ai/ha, read-out: Corn damage rating (100=total damage to plant; 0=no damage to plant); for plant injury at 62.5 g/ha / plant injury at 250 g/ha: evaluated after 13 days; for plant injury at 250 g/ha: 250 g ai/ha, read-out: damage to plant, Corn (100=total damage to plant; 0=no damage to plant)
In short: as §2

[9] = system: giant foxtail (Setaria faberi); assay: Test G Post-Emergence Protocol; details: Setaria faberi, post-emergence, 312 h; for pest or weed control at 15.625 g/ha: 15.625 g ai/ha, evaluated after 13 days (100=total damage to plant; 0=no damage to plant), read-out: Foxtail, Giant damage rating; for pest or weed control at 62.5 g/ha: 62.5 g ai/ha, read-out: Foxtail, Giant damage rating (100=total damage to plant; 0=no damage to plant); for pest or weed control at 62.5 g/ha / pest or weed control at 250 g/ha: evaluated after 13 days; for pest or weed control at 250 g/ha: 250 g ai/ha, read-out: damage to plant, Foxtail, Giant (100=total damage to plant; 0=no damage to plant)
In short: as §2

[10] = system: ivy-leaved morning glory (Ipomoea hederacea); assay: Test G Post-Emergence Protocol; details: Ipomoea, post-emergence, 312 h; for pest or weed control at 15.625 g/ha: 15.625 g ai/ha, evaluated after 13 days (100=total damage to plant; 0=no damage to plant), read-out: Morningglory, Ivy-leaved damage rating; for pest or weed control at 62.5 g/ha: 62.5 g ai/ha, read-out: Morningglory, Ivy-leaved damage rating (100=total damage to plant; 0=no damage to plant); for pest or weed control at 62.5 g/ha / pest or weed control at 250 g/ha: evaluated after 13 days; for pest or weed control at 250 g/ha: 250 g ai/ha, read-out: damage to plant, Morningglory, Ivy-leaved (100=total damage to plant; 0=no damage to plant)
In short: as §2

[11] = system: redroot pigweed (Amaranthus retroflexus); assay: Test G Post-Emergence Protocol; details: Amaranthus retroflexus, post-emergence, 312 h; for pest or weed control at 15.625 g/ha: 15.625 g ai/ha, evaluated after 13 days (100=total damage to plant; 0=no damage to plant), read-out: Pigweed, Redroot damage rating; for pest or weed control at 62.5 g/ha: 62.5 g ai/ha, read-out: Pigweed, Redroot damage rating (100=total damage to plant; 0=no damage to plant); for pest or weed control at 62.5 g/ha / pest or weed control at 250 g/ha: evaluated after 13 days; for pest or weed control at 250 g/ha: 250 g ai/ha, read-out: damage to plant, Pigweed, Redroot (100=total damage to plant; 0=no damage to plant)
In short: as §2

[12] = system: velvetleaf (Abutilon theophrasti); assay: Test G Post-Emergence Protocol; details: Abutilon theophrasti, post-emergence, 312 h; for pest or weed control at 15.625 g/ha: 15.625 g ai/ha, evaluated after 13 days (100=total damage to plant; 0=no damage to plant), read-out: Velvetleaf damage rating; for pest or weed control at 62.5 g/ha: 62.5 g ai/ha, read-out: Velvetleaf damage rating (100=total damage to plant; 0=no damage to plant); for pest or weed control at 62.5 g/ha / pest or weed control at 250 g/ha: evaluated after 13 days; for pest or weed control at 250 g/ha: 250 g ai/ha, read-out: damage to plant, Velvetleaf (100=total damage to plant; 0=no damage to plant)
In short: as §2

Structure (SMILES) | pest or weed control at 15.625 g/ha [1] [%] | pest or weed control at 62.5 g/ha [1] [%] | pest or weed control at 250 g/ha [1] [%] | plant injury at 15.625 g/ha (corn (Zea mays) [2]) [%] | plant injury at 62.5 g/ha (corn (Zea mays) [2]) [%] | plant injury at 250 g/ha (corn (Zea mays) [2]) [%] | pest or weed control at 15.625 g/ha [3] [%] | pest or weed control at 62.5 g/ha [3] [%] | pest or weed control at 250 g/ha [3] [%] | pest or weed control at 15.625 g/ha [4] [%] | pest or weed control at 62.5 g/ha [4] [%] | pest or weed control at 250 g/ha [4] [%] | pest or weed control at 15.625 g/ha [5] [%] | pest or weed control at 62.5 g/ha [5] [%] | pest or weed control at 250 g/ha [5] [%] | pest or weed control at 15.625 g/ha [6] [%] | pest or weed control at 62.5 g/ha [6] [%] | pest or weed control at 250 g/ha [6] [%] | pest or weed control at 15.625 g/ha [7] [%] | pest or weed control at 62.5 g/ha [7] [%] | further results
Cc1cc(Cl)ncc1NC(=O)[C@@H]1C(=O)N(C)C[C@H]1c1ccc(C(F)(F)F)cc1 (racemic) [Compound 1578] | 0 | 0 | 0 | 0 | 0 | 10 | 0 | 0 | 60 | 0 | 0 | 0 | 0 | 0 | 20 | 0 | 0 | 10 | 0 | 20 | pest or weed control at 250 g/ha [7]: 20%; plant injury at 15.625 g/ha (corn (Zea mays) [8]): 0%; plant injury at 62.5 g/ha (corn (Zea mays) [8]): 0%; plant injury at 250 g/ha (corn (Zea mays) [8]): 10%; pest or weed control at 15.625 g/ha [9]: 0%; pest or weed control at 62.5 g/ha [9]: 10%; pest or weed control at 250 g/ha [9]: 60%; pest or weed control at 15.625 g/ha [10]: 0%; pest or weed control at 62.5 g/ha [10]: 10%; pest or weed control at 250 g/ha [10]: 30%; pest or weed control at 15.625 g/ha [11]: 0%; pest or weed control at 62.5 g/ha [11]: 20%; pest or weed control at 250 g/ha [11]: 30%; pest or weed control at 15.625 g/ha [12]: 20%; pest or weed control at 62.5 g/ha [12]: 10%; pest or weed control at 250 g/ha [12]: 20%
CN1C[C@H](c2cccc(C(C)(C)C#N)c2)[C@@H](C(=O)Nc2ccccc2F)C1=O (racemic) [Compound 1407] | 10 | 80 | 90 | 0 | 0 | 0 | 50 | 80 | 90 | 0 | 0 | 0 | 0 | 0 | 0 | 0 | 0 | 0 | 10 | 40 | pest or weed control at 250 g/ha [7]: 60%; plant injury at 15.625 g/ha (corn (Zea mays) [8]): 0%; plant injury at 62.5 g/ha (corn (Zea mays) [8]): 10%; plant injury at 250 g/ha (corn (Zea mays) [8]): 20%; pest or weed control at 15.625 g/ha [9]: 0%; pest or weed control at 62.5 g/ha [9]: 70%; pest or weed control at 250 g/ha [9]: 70%; pest or weed control at 15.625 g/ha [10]: 0%; pest or weed control at 62.5 g/ha [10]: 20%; pest or weed control at 250 g/ha [10]: 30%; pest or weed control at 15.625 g/ha [11]: 20%; pest or weed control at 62.5 g/ha [11]: 10%; pest or weed control at 250 g/ha [11]: 30%; pest or weed control at 15.625 g/ha [12]: 10%; pest or weed control at 62.5 g/ha [12]: 20%; pest or weed control at 250 g/ha [12]: 20%
Cc1cnc(NC(=O)[C@@H]2C(=O)N(C)C[C@H]2c2ccc(C(F)(F)F)cc2)s1 (racemic) [Compound 1570] | 0 | 0 | 0 | 0 | 0 | 0 | 0 | 0 | 0 | 0 | 0 | 0 | 0 | 0 | 0 | 0 | 0 | 0 | 0 | 0 | pest or weed control at 250 g/ha [7]: 10%; plant injury at 15.625 g/ha (corn (Zea mays) [8]): 0%; plant injury at 62.5 g/ha (corn (Zea mays) [8]): 0%; plant injury at 250 g/ha (corn (Zea mays) [8]): 0%; pest or weed control at 15.625 g/ha [9]: 0%; pest or weed control at 62.5 g/ha [9]: 0%; pest or weed control at 250 g/ha [9]: 20%; pest or weed control at 15.625 g/ha [10]: 0%; pest or weed control at 62.5 g/ha [10]: 0%; pest or weed control at 250 g/ha [10]: 10%; pest or weed control at 15.625 g/ha [11]: 0%; pest or weed control at 62.5 g/ha [11]: 0%; pest or weed control at 250 g/ha [11]: 0%; pest or weed control at 15.625 g/ha [12]: 0%; pest or weed control at 62.5 g/ha [12]: 0%; pest or weed control at 250 g/ha [12]: 0%
